Values joined by “and” are separate entries in the source; they are usually repeats but may differ in a detail not shown here. Identical values can stand only once. Marks after values point to notes of the source that are not given here.

Series [1] in a line: Deuteron T1 determined by Inversion Recovery technique (5.8T, saline). It counts as physicochemical. The note with it: for T1 relaxation time of deuterons at D site / HDO T1: 5.8T, saline. As to the method: Example 1: Determinations of Deuterons T1 in Sugar Molecules
Table 1 describes the difference in T1 of deuterons in water (HDO, natural abundance) and in sites labelled with deuterons in various molecules that were determined using an Inversion Recovery technique. […] PGP-47 TI

For a further series, the system named is brain slices. Briefly: [6,6-D2]D-glucose uptake and metabolism in perfused brain slices, deuterium NMR. The series is classed as in vitro ADME, rat (male Sprague-Dawley). The note with it: for D-Glc before 1st ischemia: group A; for Minimum D-Glc during 1st ischemia: group B, 10 min perfusion arrest; for Maximal difference of D-Glc before and during 1st ischemia: group B′; for D-Glc in between ischemic conditions: group C; for Minimum D-Glc during 2nd ischemia: group D; for Maximal difference of D-Glc before and during 2nd ischemia: group D′; for D-Glc after 2nd ischemic condition: group E; for D-Lac before 1st ischemia: group F; for Maximal D-Lac during 1st ischemia: group G; for D-Lac in between ischemic conditions: group H; for Maximal D-Lac during 2nd ischemia: group I; for D-Lac after 2nd ischemic condition: group J. The source says: Male Sprague-Dawley rats (n=4, 70-100 g) were obtained from the Hebrew University Authority of Biological and Biomedical Models. The joint ethics committee (IACUC) of the Hebrew University and Hadassah Medical Center approved the study protocol for animal welfare. The Hebrew University is an AAALAC International accredited institute. Care was taken to minimize the animals' pain and discomfort. Animals were housed in the animal facilities 3-5 days after delivery for acclimatization and fed ad libitum. On the experimental day, animals were transferred to the laboratory and anesthetized within one hour of arrival.
To improve the health of acute brain slices obtained from mature adult rats, we modified a slice preparation technique optimized for in vitro electrophysiology in mature adult rat brain slices. In brief, slice health is improved by a so-called “protective recovery” method. NMDG is an extracellular replacer of sodium ions that prevents sodium ions and water influx into cells, the primary insult causing cell death following brain slicing. […] Furthermore, incubation in HEPES-buffered artificial cerebrospinal fluid (aCSF) improved slice health. The following solutions were prepared in the current study, and their use is described in the sections below.
NMDG-aCSF was used for transcardial perfusion, tissue slicing, and slice recovery. This medium contained 93 mM NMDG, 2.5 mM KCl, 1.2 mM NaH2PO4, 26 mM NaHCO3, 20 mM HEPES, 25 mM D-glucose, 10 mM MgSO4, 0.5 mM CaCl2, 5 mM ascorbic acid, 2 mM thiourea, and 3 mM pyruvic acid in double distilled water.
HEPES-holding aCSF was used to incubate slices following the surgical procedure. This medium contained 84 mM NaCl, 2.5 mM KCl, 1.2 mM NaH2PO4, 30 mM NaHCO3, 20 mM HEPES, 25 mM Glc (D-glucose, non-labeled), 2 mM MgSO4, 2 mM CaCl2, 5 mM ascorbic acid, 2 mM thiourea, and 3 mM pyruvic acid in double distilled water.
Perfusion aCSF was used for perfusion in the NMR spectrometer. This medium contained 115 mM NaCl, 2.5 mM KCl, 1.2 mM NaH2PO4, 24 mM NaHCO3, 5 mM HEPES, 10 mM Glc (to be replaced with 10 mM D-Glc), 2 mM MgSO4, and 2 mM CaCl2 in double distilled water.
All three solutions (1-3) were bubbled with 95%/5% O2/CO2 for at least one hour before use and titrated to a pH of 7.35-7.45 using HCl or NaOH. All concentrations were optimized for a calculated osmolarity of 310±15 mOsm.
Brain slices were extracted and maintained using the above solutions as previously described. Briefly, the rats were anesthetized using a gas anesthesia system (Somnosuite, Kent Scientific, Torrington, CT, USA). Induction was performed in a chamber with 3.5% isoflurane in room air with a flow rate of 440 mL/min. Following 4-7 min of induction, anesthesia was maintained with 3.1-3.2% isoflurane at the same flow rate. Upon obtaining a negative pedal pain reflex, surgery was initiated. First, the diaphragm was exposed and cut, and the rat was transcardially perfused with 30 mL of ice-cold NMDG-aCSF (Solution 1). The animals were then sacrificed by decapitation, and the brain was rapidly removed and placed in ice-cold NMDG-aCSF (Solution 1). The cerebrum was then cut into four parts (first, a sagittal cut along the hemispheric cleft and then a sagittal cut in the middle of each hemisphere). From each part, 350 μm slices were prepared using a McIlwain tissue chopper (The Mickle Laboratory Engineering Company Ltd., Surrey, UK). The process of brain extraction, from decapitation till the brain was in ice-cold NMDG-aCSF, took under 2 min, and the slicing procedure was done in less than 10 min. After cutting, the slices were transferred to warm, 32-34 °C, NMDG-aCSF (Solution 1) for 12 min for protective recovery. Then, the slices were transferred to HEPES-holding aCSF (Solution 2) at ~32 °C for 15-40 min incubation before transfer to the NMR spectrometer, where the slices were perfused with the aCSF of Solution 3. […]

Series [2] in a line: Adverse effects after bolus intravenous injection of DDG, rats. It counts as in vivo, rat. The note with it: bolus i.v., 37 mg/kg to 248 mg/kg (mice and rats), awake up to 78 min. As to the method: (§1) Mice and rats, males and females at equal numbers, were intravenously injected with a bolus of varying doses of deuterated 2-deoxy-D-glucose (2-DG, DDG, with varying numbers and positions of deuteration). DDGs were provided by CortecNet, France. The injection was performed under sedation in all rats (18) and in 12 of 18 mice, after which the animals woke up within 1 minute. […] Further to euthanasia, the brain, liver, kidneys, heart, and muscle were excised and immediately placed in liquid nitrogen. The frozen tissue samples were kept at −80 °C until further processing.
(§2) The animals were observed awake for up to 78 min after the injection. The injection bolus was administered in less than 1 s and ranged from 0.1 mL for mice (ca. 25-40 g) to 0.6 mL for rats (ca. 120-160 g).

The nature of series [3]: Adverse effects after bolus intravenous injection of DDG, mice. The note with it: bolus i.v., 37 mg/kg to 248 mg/kg (mice and rats), awake up to 78 min. The series is classed as in vivo, mouse. As to the method: as §1, §2
Where [4] appears, read: position 1 (aliphatic), 16-17 °C.
The mark [5] stands for this setting: position 2 (aliphatic), 16-17 °C.

For `C[N+](C)(C)CCO` [[D13]choline bromide], the “T1 relaxation time of deuterons at D site” value (“T1 relaxation time” for short) in series [1] (setting [4]) is 389 ms; in series [1] (setting [5]), 396 ms; in series [1] (position 3 (aliphatic), 16-17 °C), 382 ms.

`OC[C@H]1OC(O)[C@H](O)[C@@H](O)[C@@H]1O` (stereo partly shown) [[^13C6, D7]glucose]: the “T1 relaxation time” value in series [1] (aliphatic + ring, 20 °C) is 56 ms.

Regarding `OC[C@H]1OC(O)[C@H](O)[C@@H](O)[C@@H]1O` (stereo partly drawn) [D-Glc, [6,6-D2]D-glucose], the “T1 relaxation time” value in series [1] (aliphatic, 16-17 °C) is 53 ^c ms. In addition, the “time for return to baseline level upon reperfusion” value (“time for return” for short) with brain slices (after 1st ischemic condition) was not above 8 min. For the same molecule, in the series on brain slices (after 2nd ischemic condition), the “time for return” value is not above 8 min. In addition, the “time for D-Glc signal to reach plateau” value in the series on brain slices (after administration of D-Glc to perfusion medium) is recorded as not above 6 min. In the series with brain slices (both ischemic conditions, n=6), the “maximal decrease in the D-Glc concentration” value turned out to be 4.3 ± 0.9 mM. Moreover, in the series with brain slices (during the ischemic conditions), the “conversion of available D-Glc” value is “fully converted to D-Lac”. Further, in the series with brain slices (average ± SD, n=3), the “D-Glc before 1st ischemia” value amounted to 8.6 ± 0.7 mM; the “Minimum D-Glc during 1st ischemia” value was 4.6 ± 1.5 mM; the “Maximal difference of D-Glc before and during 1st ischemia” value is 3.9 ± 1.3 mM; the “D-Glc in between ischemic conditions” value was determined as 8.7 ± 0.7 mM. Besides, in the series on brain slices (average ± SD, n=3), the “Minimum D-Glc during 2nd ischemia” value turned out to be 4.1 ± 0.5 mM; the “Maximal difference of D-Glc before and during 2nd ischemia” value came to 4.6 ± 0.3 mM; the “D-Glc after 2nd ischemic condition” value amounted to 9.3 ± 1.1 mM. In the series on brain slices (individual animals), the “D-Glc before 1st ischemia” value was 9.3 mM and 8.8 mM and 7.6 mM; the “Minimum D-Glc during 1st ischemia” value is 4.7 mM and 6.4 mM and 2.8 mM; the “Maximal difference of D-Glc before and during 1st ischemia” value is 4.6 mM and 2.4 mM and 4.8 mM; the “D-Glc in between ischemic conditions” value was 9.5 mM and 8.6 mM and 7.9 mM. In addition, in the series on brain slices (individual animals), the “Minimum D-Glc during 2nd ischemia” value is 4.6 mM and 4.2 mM and 3.4 mM; the “Maximal difference of D-Glc before and during 2nd ischemia” value was 4.9 mM and 4.4 mM and 4.5 mM; the “D-Glc after 2nd ischemic condition” value is 10.8 mM and 8.8 mM and 8.2 mM. The “D-Glc in between 2nd and 3rd ischemic conditions” value with brain slices (group K, animal 3) was 8.3 mM. Also, the “Minimum D-Glc during 3rd ischemia” value in the series on brain slices (group L, animal 3, 64 min ischemia) is recorded as 1.2 mM. For the same molecule, the “Maximal difference of D-Glc before and during 3rd ischemia” value with brain slices (group L′, animal 3) was 7.1 mM. Further, in the series on brain slices (group M, animal 3), the “D-Glc after 3rd ischemic condition” value is 9.1 mM.

For the molecule `[2H]C1(O)O[C@]([2H])(C([2H])([2H])O)[C@@]([2H])(O)[C@]([2H])(O)C1([2H])[2H]` (stereo partly drawn) [[D8]DDG, [1,2,2,3,4,5,6,6-D8]2-deoxy-D-glucose], the adverse effects result in series [2] and in series [3] was “no adverse effects” each time.

Take `[2H]O` [HDO]: the “HDO T1” value is 279 ms in series [1] (HDO in the solution of [13C6, D7]glucose, 20 °C); 420 ms and 437 ms and 422 ms and 410 ms in series [1] (HDO in the solution of the compound on that line, 16-17 °C). Further, in series [1] (summary of Table 1), the “HDO's T1” value is reported as “ca. 400 ms”.

Consider `C[N+](C)(C)CCO` [[2-^13C,1,1,2,2-D4]choline chloride], for which the “T1 relaxation time” value in series [1] (setting [4]) is 422 ms; in series [1] (setting [5]), 404 ms.

For the molecule `N[C@@H](Cc1ccc(O)cc1)C(=O)O` [[^13C9, D7, ^15N]tyrosine], the “T1 relaxation time” value in series [1] (aliphatic, 16-17 °C) is listed as 45 ms; in series [1] (aromatic, 16-17 °C) it was 45 ms.

Regarding `N[C@@H](Cc1ccc(O)cc1)C(=O)O` [[D7]tyrosine], the “T1 relaxation time” value was 48 ms in series [1] (aliphatic, 16-17 °C) and 43 ms in series [1] (aromatic, 16-17 °C).

As to `[2H]C([2H])C(O)C(=O)O` [D-Lac, [3,3-D2]lactate], the “time for return” value with brain slices (after 1st ischemic condition) was not above 8 min. In addition, in the series on brain slices (after 2nd reperfusion vs before and between ischemic conditions), the “D-Lac accumulation within the cells due to ischemic conditions” value is “did not accumulate within the cells due to the ischemic conditions”. Further, the “time of first observation of D-Lac signal” value in the series with brain slices (after D-Glc administration) was not above 8 min. Besides, the “time for D-Lac to reach plateau” value in the series on brain slices (after D-Glc administration, n=3) lay in the range of 12 to 14 min. The “increase in D-Lac concentration” value with brain slices (both ischemic conditions, n=6) turned out to be 5.5 ± 1.1 mM. The “D-Lac level without perfusion arrest” value in the series with brain slices (control experiment, no ischemic conditions) was “constant throughout”. Further, in the series with brain slices (average ± SD, n=3), the “D-Lac before 1st ischemia” value was found to be 0.9 ± 0.4 mM, the “Maximal D-Lac during 1st ischemia” value was 5.1 ± 1.3 mM, the “D-Lac in between ischemic conditions” value amounted to 1.1 ± 0.3 mM and the “Maximal D-Lac during 2nd ischemia” value was determined as 5.91 ± 0.12 mM. For the same molecule, the “D-Lac after 2nd ischemic condition” value in the series on brain slices (average ± SD, n=3) was 1.6 ± 0.4 mM. Besides, in the series with brain slices (individual animals), the “D-Lac before 1st ischemia” value was 0.4 mM and 1.02 mM and 1.4 mM; the “Maximal D-Lac during 1st ischemia” value was 4.8 mM and 3.7 mM and 6.8 mM; the “D-Lac in between ischemic conditions” value was 0.67 mM and 1.29 mM and 1.41 mM; the “Maximal D-Lac during 2nd ischemia” value was 5.85 mM and 6.07 mM and 5.80 mM. The “D-Lac after 2nd ischemic condition” value in the series on brain slices (individual animals) was 1.08 mM and 1.50 mM and 2.16 mM. The “Maximal D-Lac during 3rd ischemia” value with brain slices (group N, animal 3, 64 min ischemia) stood at 10.2 mM. Further, in the series with brain slices (group O, animal 3), the “D-Lac after 3rd ischemia” value is 2.7 mM. The “D-Lac signal in medium without brain slices relative to D-Lac in NMR tube with slices” value in the series with brain slices (perfusion medium, five h, no perfusion arrest) was 2.2%.
